Experimental data as given in PubChem BioAssay (NCI).
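Method: 48-hour compound exposure of cells in 96-well plates, five concentrations, linear interpolation of endpoints. GI50 = concentration required for 50% inhibition of growth. TGI marks complete inhibition of growth.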

Assays:
Assay in all cases: NCI tumour cell line growth inhibition, 48 h
[1] = test system: HOP-92 NSCLC
[2] = test system: SNB-75 CNS
[3] = test system: HT29 colon
[4] = test system: OVCAR-8 ovarian
[5] = test system: NCI-H522 lung
[6] = test system: SNB-19 CNS
[7] = test system: HOP-62 NSCLC
[8] = test system: SN12C renal
[9] = test system: UO-31 renal
[10] = test system: OVCAR-3 ovarian
[11] = test system: CAKI-1 renal
[12] = test system: KM12 colon
[13] = test system: NCI-H23 lung
[14] = test system: K-562 leukemia
[15] = test system: SK-MEL-2 melanoma
[16] = test system: MOLT-4 leukemia
[17] = test system: IGROV1 ovarian
[18] = test system: SF-268 CNS
[19] = test system: HS 578T breast
[20] = test system: LOX IMVI melanoma
[21] = test system: OVCAR-4 ovarian
[22] = test system: 786-0 renal
[23] = test system: DU-145 prostate
[24] = test system: HCT-116 colon
[25] = test system: T-47D breast
[26] = test system: EKVX NSCLC
[27] = test system: NCI-H460 lung
[28] = test system: A498 renal
[29] = test system: HL-60(TB) leukemia
[30] = test system: UACC-257 melanoma
[31] = test system: MDA-MB-435
[32] = test system: M14 melanoma
[33] = test system: ACHN renal
[34] = test system: U251 CNS
[35] = test system: SF-295 CNS
[36] = test system: PC-3 prostate
[37] = test system: MDA-MB-231 breast
[38] = test system: OVCAR-5 ovarian
[39] = test system: COLO 205 colon
[40] = test system: CCRF-CEM leukemia
[41] = test system: SK-MEL-5 melanoma
[42] = test system: UACC-62 melanoma
[43] = test system: A549 NSCLC
[44] = test system: SK-OV-3 ovarian
[45] = test system: MALME-3M melanoma
[46] = test system: SK-MEL-28 melanoma
[47] = test system: MCF7 breast
[48] = test system: HCC-2998 colon
[49] = test system: SW-620 colon
[50] = test system: TK-10 renal
[51] = test system: SF-539 CNS
[52] = test system: RXF 393 renal
[53] = test system: NCI-H226 lung
[54] = test system: HCT-15 colon
[55] = test system: BT-549 breast
[56] = test system: RPMI-8226 leukemia
[57] = test system: SR leukemia

COc1cc([C@@H]2c3cc4c(cc3C(Br)[C@H]3COC(=O)[C@H]23)OCO4)cc(OC)c1OC (stereo partly specified)
GI50 [1]: 529 nM
TGI [1]: > 30100 nM
GI50 [2]: 271 nM
TGI [2]: > 100000 nM
GI50 [3]: 289 nM
TGI [3]: 2850 nM
GI50 [4]: 310 nM
GI50 [5]: 72 nM
TGI [5]: 389 nM
GI50 [6]: 553 nM
TGI [6]: > 100000 nM
GI50 [7]: 436 nM
TGI [7]: > 100000 nM
GI50 [8]: 549 nM
TGI [8]: > 100000 nM
GI50 [9]: 418 nM
TGI [9]: > 100000 nM
GI50 [10]: 213 nM
TGI [10]: 559 nM
GI50 [11]: 117 nM
TGI [11]: > 48400 nM
GI50 [12]: 90.9 nM
TGI [12]: 438 nM
GI50 [13]: 321 nM
TGI [13]: > 100000 nM
GI50 [14]: 185 nM
TGI [14]: > 100000 nM
GI50 [15]: 499 nM
TGI [15]: > 100000 nM
GI50 [16]: 431 nM
TGI [16]: > 100000 nM
GI50 [17]: 291 nM
TGI [17]: > 65900 nM
GI50 [18]: 399 nM
TGI [18]: > 100000 nM
GI50 [19]: 142 nM
TGI [19]: 707 nM
GI50 [20]: 264 nM
TGI [20]: > 100000 nM
GI50 [21]: 541 nM
TGI [21]: > 100000 nM
GI50 [22]: 307 nM
TGI [22]: 33800 nM
GI50 [23]: 252 nM
TGI [23]: 646 nM
GI50 [24]: 207 nM
TGI [24]: 784 nM
GI50 [25]: > 100000 nM
TGI [25]: > 100000 nM
GI50 [26]: 533 nM
TGI [26]: > 100000 nM
GI50 [27]: 204 nM
TGI [27]: 547 nM
GI50 [28]: 25.7 nM
TGI [28]: 177 nM
GI50 [29]: 223 nM
GI50 [30]: 214 nM
TGI [30]: > 100000 nM
GI50 [31]: 36.5 nM
GI50 [32]: 220 nM
GI50 [33]: 241 nM
TGI [33]: > 100000 nM
GI50 [34]: 296 nM
TGI [34]: > 81200 nM
GI50 [35]: 85.9 nM
GI50 [36]: 438 nM
TGI [36]: > 100000 nM
GI50 [37]: 296 nM
GI50 [38]: 552 nM
TGI [38]: > 100000 nM
GI50 [39]: 189 nM
TGI [39]: 399 nM
GI50 [40]: 363 nM
TGI [40]: > 100000 nM
GI50 [41]: 209 nM
TGI [41]: 488 nM
GI50 [42]: 187 nM
TGI [42]: > 100000 nM
GI50 [43]: 313 nM
TGI [43]: > 100000 nM
GI50 [44]: 312 nM
TGI [44]: > 100000 nM
GI50 [45]: 51300 nM
TGI [45]: > 100000 nM
GI50 [46]: 53500 nM
TGI [46]: > 100000 nM
GI50 [47]: 168 nM
TGI [47]: > 100000 nM
GI50 [48]: 255 nM
TGI [48]: 694 nM
GI50 [49]: 194 nM
TGI [49]: > 100000 nM
TGI [50]: > 100000 nM
GI50 [51]: 185 nM
TGI [51]: 598 nM
GI50 [52]: 81.5 nM
TGI [52]: 6480 nM
GI50 [53]: 721 nM
TGI [53]: > 100000 nM
GI50 [54]: 253 nM
TGI [54]: > 100000 nM
GI50 [55]: 254 nM
GI50 [56]: 507 nM
TGI [56]: > 100000 nM
GI50 [57]: 117 nM
TGI [57]: > 100000 nM
